According to US4970162A, “Human-mouse hybrid cell line expressing monocyte-macrophage properties” (The United States of America as represented by the …, priority 1985, dated 1990):

What was measured:
RAW264 cells = experiment: chemotaxis of RAW264 cells; assay type: cell-based; settings: mouse RAW264 cells
Description: (§1) Chemotaxis by the cell lines was measured in a 48-well microchemotaxis chamber (Neuro Probe, Inc., Cabin John, Md.) with a 10 μm thick Nuclepore polycarbonate membrane coated with polyvinylpyrrolidone and containing 5 μm pores as described by Aksamit, et al., J. Immunol 126:2194 (1981). Upper wells contained 50,000 cells in MEM with 10% heat-inactivated fetal calf serum, and lower wells contained attractant in RPMI-1640 (GIBCO, Grand Island, N.Y.). […] EAMS was prepared as described by Aksamit et al., supra. Cells in the chemotaxis chamber were allowed to migrate for 4 hrs at 37° C. in an atmosphere of 5% CO2 and 95% air. The top cells were wiped off the filter, and cells on the bottom were stained in Diff-Quik (Harleco, Gibbstown, N.J.). Chemotaxis was quantified by measurement of the optical density of the migrated cells.

WBC264-9 cells = experiment: chemotaxis of WBC264-9 cells in 48-well microchemotaxis chamber; assay type: cell-based, human-mouse hybrid
Description: as §1

macrophage chemotaxis = settings: cited from earlier work

Row | Molecule | chemotaxis to FMLP (RAW264 cells) | chemotaxis to FMLP (WBC264-9 cells; 30 nM FMLP, cell line 9 (WBC264-9), for 20 passages, FIG. 1) | concentration of optimal chemotactic response (WBC264-9 cells; WBC264-9 cells, 4 hrs at 37° C., FIG. 2) | inhibition of macrophage chemotaxis (macrophage chemotaxis)
1 | CSCC[C@H](NC=O)C(=O)N[C@@H](CC(C)C)C(=O)N[C@@H](Cc1ccccc1)C(=O)O [FMLP, N-formylmethionine-leucine-phenylalanine] | do not exhibit chemotaxis | high level of chemotaxis | approximately 3×10^-8 M | 
2 | pertussis toxin |  |  |  | potent inhibitor
